In EP4800015A1, “AZABICYCLO DERIVATIVE AND PREPARATION METHOD THEREFOR, AND USE” (Zhejiang Hisun Pharmaceutical Co., Ltd., priority 2023, dated 2025):

Experiments:
recombinant human WRN = target: T1, recombinant human WRN (Homo sapiens, UniProt Q14191); assay: Inhibition of WRN enzyme activity (ATPase), ADP-Glo Kinase Assay; format: biochemical; settings: WRN protein 5 nM, Flap 0.1 nM, ATP 30 µM; read-out: IC50
T1 construct: purchased BPS 101264
Method in brief: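 ATPase activity was measured by ADP-Glo luminescence after a 10-min room-temperature reaction with 30 µM ATP and 0.1 nM Flap26 oligonucleotide substrate. The 5 nM WRN had first been exposed to compound (0.004–1000 nM) for 15 min in pH 7.5 Tris buffer with 2 mM MgCl2. IC50 values came from log-concentration regression against the DMSO control.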

RL95-2 cells = assay: Inhibition of RL95-2 cell proliferation (CellTiter-Glo); format: cell-based; settings: Homo sapiens; RL95-2 cells (MSI-H), 120 hours
Method in brief: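 Proliferation IC50 derived by nonlinear regression of % inhibition against log concentration, with 0.1% DMSO wells as reference. CellTiter-Glo luminescence was read after 120 h of compound exposure (10000 nM down to 1.52 nM final) at 37 °C. MSI-H RL95-2 cells seeded at 500/well in DMEM/F12 with 10% FBS the day before.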

SW48 cells = assay: Inhibition of SW48 cell proliferation (CellTiter-Glo); format: cell-based; settings: Homo sapiens; SW48 cells (MSI-H), 120 hours
Method in brief: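 SW48 (MSI-H) cells in L-15 with 10% FBS were seeded at 500 per well, cultured overnight at 37 °C, then exposed to compound at final concentrations of 10000 nM to 1.52 nM for 120 h. Viability was read by CellTiter-Glo luminescence, with inhibition relative to 0.1% DMSO. IC50 from nonlinear regression of log concentration versus inhibition.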

Measured: IC50

T1 sequence (Q14191 whole entry): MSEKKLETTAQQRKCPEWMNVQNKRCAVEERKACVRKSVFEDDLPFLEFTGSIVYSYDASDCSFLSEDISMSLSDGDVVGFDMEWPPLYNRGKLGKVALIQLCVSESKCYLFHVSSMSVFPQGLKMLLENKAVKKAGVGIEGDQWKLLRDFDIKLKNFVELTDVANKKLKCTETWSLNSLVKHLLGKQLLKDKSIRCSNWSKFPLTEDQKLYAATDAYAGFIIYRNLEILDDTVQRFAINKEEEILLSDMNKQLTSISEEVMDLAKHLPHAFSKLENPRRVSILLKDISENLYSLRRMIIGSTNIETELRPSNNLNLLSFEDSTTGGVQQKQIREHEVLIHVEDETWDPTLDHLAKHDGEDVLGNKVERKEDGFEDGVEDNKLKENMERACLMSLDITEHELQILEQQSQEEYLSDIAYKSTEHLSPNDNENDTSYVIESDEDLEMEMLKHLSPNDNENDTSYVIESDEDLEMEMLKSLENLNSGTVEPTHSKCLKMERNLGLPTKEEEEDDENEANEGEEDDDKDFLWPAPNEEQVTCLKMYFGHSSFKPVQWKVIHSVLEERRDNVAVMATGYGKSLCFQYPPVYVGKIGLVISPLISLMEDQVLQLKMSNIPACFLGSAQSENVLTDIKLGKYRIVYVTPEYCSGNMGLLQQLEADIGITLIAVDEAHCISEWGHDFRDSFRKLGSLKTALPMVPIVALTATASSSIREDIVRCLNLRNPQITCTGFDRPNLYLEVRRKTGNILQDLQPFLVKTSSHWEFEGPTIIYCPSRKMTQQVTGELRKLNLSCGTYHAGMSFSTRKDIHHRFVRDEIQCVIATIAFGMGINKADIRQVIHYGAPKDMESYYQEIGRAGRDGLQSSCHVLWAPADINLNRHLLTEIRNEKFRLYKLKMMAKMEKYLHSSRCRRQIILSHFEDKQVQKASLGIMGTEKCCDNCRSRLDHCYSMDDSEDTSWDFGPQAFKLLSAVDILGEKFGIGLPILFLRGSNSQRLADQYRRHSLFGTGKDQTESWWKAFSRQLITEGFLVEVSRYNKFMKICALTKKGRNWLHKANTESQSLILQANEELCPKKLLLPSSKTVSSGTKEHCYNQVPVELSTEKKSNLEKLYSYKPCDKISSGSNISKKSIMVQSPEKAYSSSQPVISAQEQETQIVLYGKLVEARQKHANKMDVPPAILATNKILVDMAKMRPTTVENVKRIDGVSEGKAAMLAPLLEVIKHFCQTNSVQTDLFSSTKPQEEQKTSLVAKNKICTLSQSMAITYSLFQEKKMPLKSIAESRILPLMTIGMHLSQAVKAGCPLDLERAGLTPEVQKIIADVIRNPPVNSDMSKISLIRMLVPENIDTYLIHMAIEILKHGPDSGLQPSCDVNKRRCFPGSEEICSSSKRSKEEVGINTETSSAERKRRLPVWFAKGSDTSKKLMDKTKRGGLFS

CCc1c(N2CCN(C(=O)c3ncnc(C)c3O)CC2)c(=O)n2nc(-c3ccc4c(c3)CCCO4)nc2n1CC(=O)Nc1ccc(C(F)(F)F)cc1Cl [Example 130, N-(2-chloro-4-(trifluoromethyl)phenyl)-2-(2-(chroman-6-yl)-5-ethyl-6-(4-(5-hydroxy-6-methylpyrimidine-4-carbonyl)piperazin-1-yl)-7-oxo-[1,2,4]triazolo[1,5-a]pyrimidin-4(7H)-yl)acetamide]
1 to 100 nM: all assays above

CCc1c(N2CCN(C(=O)c3ncnc(C)c3O)CC2)c(=O)n2nc(-c3cc4ccncc4s3)nc2n1CC(=O)Nc1ccc(C(F)(F)F)cc1Cl [Example 132, N-(2-chloro-4-(trifluoromethyl)phenyl)-2-(5-ethyl-6-(4-(5-hydroxy-6-methylpyrimidine-4-carbonyl)piperazin-1-yl)-7-oxo-2-(thieno[2,3-c]pyridin-2-yl)-[1,2,4]triazolo[1,5-a]pyrimidin-4(7H)-yl)a cetamide]
1 to 100 nM: all assays above

CCc1c(N2CCN(C(=O)c3ncnc(C)c3O)CC2)c(=O)n2nc(-c3nc4ccccc4s3)nc2n1CC(=O)Nc1ccc(C(F)(F)F)cc1Cl [Example 133, 2-(2-(benzo[d]thiazol-2-yl)-5-ethyl-6-(4-(5-hydroxy-6-methylpyrimidine-4-carbonyl)piperazin-1-yl)-7-oxo-[1,2,4]triazolo[1,5-a]pyrimidin-4(7H)-yl)-N-(2-chloro-4-(trifluoromethyl)phenyl)acetamide]
1 to 100 nM: all assays above

CCc1c(N2CCN(C(=O)c3ncnc(C)c3O)CC2)c(=O)n2nc(-c3cc4c(s3)CCNC4)nc2n1CC(=O)Nc1ccc(C(F)(F)F)cc1Cl [Example 134, N-(2-chloro-4-(trifluoromethyl)phenyl)-2-(5-ethyl-6-(4-(5-hydroxy-6-methylpyrimidine-4-carbonyl)piperazin-1-yl)-7-oxo-2-(4,5,6,7-tetrahydrothieno[3,2-c]pyridin-2-yl)-[1,2,4]triazolo[1,5-a]pyrimidin-4(7H)-yl)acetamide]
1 to 100 nM: all assays above

CCc1c(N2CCN(C(=O)c3ncnc(C)c3O)CC2)c(=O)n2nc(-c3ccc4nc(N)oc4c3)nc2n1CC(=O)Nc1ccc(C(F)(F)F)cc1Cl [Example 140, 2-(2-(2-aminobenzo[d]oxazol-6-yl)-5-ethyl-6-(4-(5-hydroxy-6-methylpyrimidine-4-carbonyl)piperazin-1-yl)-7-oxo-[1,2,4]triazolo[1,5-a]pyrimidin-4(7H)-yl)-N-(2-chloro-4-(trifluoromethyl)phenyl)acetamide]
1 to 100 nM: all assays above

CCc1c(N2CCN(C(=O)c3ncnc(C)c3O)CC2)c(=O)n2nc(-c3ccc4c(c3)CNCCO4)nc2n1CC(=O)Nc1ccc(C(F)(F)F)cc1Cl [Example 142, N-(2-chloro-4-(trifluoromethyl)phenyl)-2-(5-ethyl-6-(4-(5-hydroxy-6-methylpyrimidine-4-carbonyl)piperazin-1-yl)-7-oxo-2-(2,3,4,5-tetrahydrobenzo[f][1,4]oxazepin-7-yl)-[1,2,4]triazolo[1,5-a]pyrimidin-4(7H)-yl)acetamide]
1 to 100 nM: all assays above

[2H]C([2H])([2H])Sc1ccc(NC(=O)Cn2c(CC)c(N3CCN(C(=O)c4ncnc(C)c4O)CC3)c(=O)n3nc(-c4ccc5c(c4)CCO5)nc23)c(Cl)c1 [Example 147, N-(2-chloro-4-((methyl-d3)thio)phenyl)-2-(2-(2,3-dihydrobenzofuran-5-yl)-5-ethyl-6-(4-(5-hydroxy-6-methylpyrimidine-4-carbonyl)piperazin-1-yl)-7-oxo-[1,2,4]triazolo[1,5-a]pyrimidin-4(7H)-yl)acetamide]
1 to 100 nM: all assays above

CCc1c(C2=CCN(C(=O)c3ncnc(C)c3O)CC2)c(=O)n2nc(-c3ccc4c(c3)CCO4)nc2n1CC(=O)Nc1ccc(C(F)(F)F)cc1Cl [Example 149, N-(2-chloro-4-(trifluoromethyl)phenyl)-2-(2-(2,3-dihydrobenzofuran-5-yl)-5-ethyl-6-(1-(5-hydroxy-6-methylpyrimidine-4-carbonyl)-1,2,3,6-tetrahydropyridin-4-yl)-7-oxo-[1,2,4]triazolo[1,5-a]pyrimidin-4(7H)-yl)acetamide]
1 to 100 nM: all assays above

CCc1c(N2CCN(C(=O)c3nc(C)ncc3O)CC2)c(=O)n2nc(-c3ccc4c(c3)CCO4)nc2n1CC(=O)Nc1ccc(C(F)(F)F)cc1Cl [Example 150, N-(2-chloro-4-(trifluoromethyl)phenyl)-2-(2-(2,3-dihydrobenzofuran-5-yl)-5-ethyl-6-(4-(5-hydroxy-2-methylpyrimidine-4-carbonyl)piperazin-1-yl)-7-oxo-[1,2,4]triazolo[1,5-a]pyrimidin-4(7H)-yl)acetamide]
1 to 100 nM: all assays above

CCc1c(N2CCN(C(=O)c3ncnc(C)c3O)CC2)c(=O)n2nc(-c3cc4cnccc4s3)nc2n1CC(=O)Nc1ccc(C(F)(F)F)cc1Cl [Example 153, N-(2-chloro-4-(trifluoromethyl)phenyl)-2-(5-ethyl-6-(4-(5-hydroxy-6-methylpyrimidine-4-carbonyl)piperazin-1-yl)-7-oxo-2-(thieno[3,2-c]pyridin-2-yl)-[1,2,4]triazolo[1,5-a]pyrimidin-4(7H)-yl)a cetamide]
1 to 100 nM: all assays above

CCc1c(N2CCN(C(=O)c3ncnc(C)c3O)CC2)c(=O)n2nc(-c3cccc4c3OCC4)nc2n1CC(=O)Nc1ccc(C(F)(F)F)cc1Cl [Example 154, N-(2-chloro-4-(trifluoromethyl)phenyl)-2-(2-(2,3-dihydrobenzofuran-7-yl)-5-ethyl-6-(4-(5-hydroxy-6-methylpyrimidine-4-carbonyl)piperazin-1-yl)-7-oxo-[1,2,4]triazolo[1,5-a]pyrimidin-4(7H)-yl)acetamide]
1 to 100 nM: all assays above

CCc1c(N2CCN(C(=O)c3ncnc(C)c3O)CC2)c(=O)n2nc(-c3ccc4cn[nH]c4c3)nc2n1CC(=O)Nc1ccc(C(F)(F)F)cc1Cl [Example 156, N-(2-chloro-4-(trifluoromethyl)phenyl)-2-(5-ethyl-6-(4-(5-hydroxy-6-methylpyrimidine-4-carbonyl)piperazin-1-yl)-2-(1H-indazol-6-yl)-7-oxo-[1,2,4]triazolo[1,5-a]pyrimidin-4(7H)-yl)acetamide]
1 to 100 nM: all assays above

CCc1c(N2CCN(C(=O)c3ncnc(C)c3O)CC2)c(=O)n2nc(-c3ccc4c(c3)NCCO4)nc2n1CC(=O)Nc1ccc(C(F)(F)F)cc1Cl [Example 157, N-(2-chloro-4-(trifluoromethyl)phenyl)-2-(2-(3,4-dihydro-2H-benzo[b][1,4]oxazin-6-yl)-5-ethyl-6-(4-(5-hydroxy-6-methylpyrimidine-4-carbonyl)piperazin-1-yl)-7-oxo-[1,2,4]triazolo[1,5-a]pyrimidin-4(7H)-yl)acetamide]
1 to 100 nM: all assays above

CCc1c(N2CCN(C(=O)c3ncnc(C)c3O)CC2)c(=O)n2nc(C3=CCCCOC3)nc2n1CC(=O)Nc1ccc(S(F)(F)(F)(F)F)cc1C [Example 158, 2-(5-ethyl-6-(4-(5-hydroxy-6-methylpyrimidine-4-carbonyl)piperazin-1-yl)-7-oxo-2-(2,5,6,7-tetra hydrooxepin-3-yl)-[1,2,4]triazolo[1,5-a]pyrimidin-4(7H)-yl)-N-(2-methyl-4-(pentafluoro-λ^6-sulfaneyl)phenyl)acetamide]
1 to 100 nM: all assays above

CCc1c(N2CCN(C(=O)c3ncccc3O)CC2)c(=O)n2nc(C3=CC4COCC4C3)nc2n1CC(=O)Nc1ccc(C(F)(F)F)cc1Cl (stereo not drawn) [Example 159, N-(2-chloro-4-(trifluoromethyl)phenyl)-2-(5-ethyl-6-(4-(3-hydroxypicolinoyl)piperazin-1-yl)-7-oxo-2-(3,3a,4,6a-tetrahydro-1H-cyclopenta[c]furan-5-yl)-[1,2,4]triazolo[1,5-a]pyrimidin-4(7H)-yl) acetamide]
1 to 100 nM: all assays above
